The target of one test is PIK3CG (human) (UniProt P48736). Briefly: Inhibition of PIK3CG Kinase Activity.
For the next test, the target named is PIK3CA (human) (UniProt P42336). Kind of test: Inhibition of PIK3CA Kinase Activity.
The target in a further test is PIK3CD (Human) (UniProt O00329). Kind of test: Inhibition of PIK3CD Kinase Activity.
Chain of PIK3CD (Human) (O00329 whole entry, looked up): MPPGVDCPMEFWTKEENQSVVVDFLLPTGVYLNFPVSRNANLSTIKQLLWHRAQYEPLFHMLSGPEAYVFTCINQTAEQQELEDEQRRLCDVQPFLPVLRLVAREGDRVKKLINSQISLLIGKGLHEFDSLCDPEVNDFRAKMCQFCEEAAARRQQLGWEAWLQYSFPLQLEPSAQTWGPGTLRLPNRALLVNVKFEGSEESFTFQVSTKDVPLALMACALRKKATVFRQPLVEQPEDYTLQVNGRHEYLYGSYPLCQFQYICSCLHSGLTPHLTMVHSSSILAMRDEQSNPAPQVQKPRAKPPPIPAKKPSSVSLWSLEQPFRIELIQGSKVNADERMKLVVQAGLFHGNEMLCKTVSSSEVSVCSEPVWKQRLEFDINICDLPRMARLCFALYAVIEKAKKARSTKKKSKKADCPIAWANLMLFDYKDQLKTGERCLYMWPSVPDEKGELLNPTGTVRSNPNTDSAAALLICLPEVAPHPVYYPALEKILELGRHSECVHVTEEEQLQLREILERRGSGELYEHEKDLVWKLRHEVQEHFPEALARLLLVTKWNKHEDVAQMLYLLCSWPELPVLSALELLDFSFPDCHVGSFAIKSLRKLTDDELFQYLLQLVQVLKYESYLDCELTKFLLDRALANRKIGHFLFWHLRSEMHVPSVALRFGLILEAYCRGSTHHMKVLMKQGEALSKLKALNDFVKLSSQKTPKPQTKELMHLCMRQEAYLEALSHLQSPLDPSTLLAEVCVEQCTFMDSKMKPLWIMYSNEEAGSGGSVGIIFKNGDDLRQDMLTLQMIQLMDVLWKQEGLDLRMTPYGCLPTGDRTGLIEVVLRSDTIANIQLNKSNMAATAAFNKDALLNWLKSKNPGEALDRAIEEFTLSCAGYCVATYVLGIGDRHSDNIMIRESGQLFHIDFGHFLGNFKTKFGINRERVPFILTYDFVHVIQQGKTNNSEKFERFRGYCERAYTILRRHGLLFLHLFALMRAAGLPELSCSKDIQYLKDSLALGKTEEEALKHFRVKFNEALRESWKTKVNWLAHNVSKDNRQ

Chain of PIK3CG (human) (P48736 whole entry, looked up): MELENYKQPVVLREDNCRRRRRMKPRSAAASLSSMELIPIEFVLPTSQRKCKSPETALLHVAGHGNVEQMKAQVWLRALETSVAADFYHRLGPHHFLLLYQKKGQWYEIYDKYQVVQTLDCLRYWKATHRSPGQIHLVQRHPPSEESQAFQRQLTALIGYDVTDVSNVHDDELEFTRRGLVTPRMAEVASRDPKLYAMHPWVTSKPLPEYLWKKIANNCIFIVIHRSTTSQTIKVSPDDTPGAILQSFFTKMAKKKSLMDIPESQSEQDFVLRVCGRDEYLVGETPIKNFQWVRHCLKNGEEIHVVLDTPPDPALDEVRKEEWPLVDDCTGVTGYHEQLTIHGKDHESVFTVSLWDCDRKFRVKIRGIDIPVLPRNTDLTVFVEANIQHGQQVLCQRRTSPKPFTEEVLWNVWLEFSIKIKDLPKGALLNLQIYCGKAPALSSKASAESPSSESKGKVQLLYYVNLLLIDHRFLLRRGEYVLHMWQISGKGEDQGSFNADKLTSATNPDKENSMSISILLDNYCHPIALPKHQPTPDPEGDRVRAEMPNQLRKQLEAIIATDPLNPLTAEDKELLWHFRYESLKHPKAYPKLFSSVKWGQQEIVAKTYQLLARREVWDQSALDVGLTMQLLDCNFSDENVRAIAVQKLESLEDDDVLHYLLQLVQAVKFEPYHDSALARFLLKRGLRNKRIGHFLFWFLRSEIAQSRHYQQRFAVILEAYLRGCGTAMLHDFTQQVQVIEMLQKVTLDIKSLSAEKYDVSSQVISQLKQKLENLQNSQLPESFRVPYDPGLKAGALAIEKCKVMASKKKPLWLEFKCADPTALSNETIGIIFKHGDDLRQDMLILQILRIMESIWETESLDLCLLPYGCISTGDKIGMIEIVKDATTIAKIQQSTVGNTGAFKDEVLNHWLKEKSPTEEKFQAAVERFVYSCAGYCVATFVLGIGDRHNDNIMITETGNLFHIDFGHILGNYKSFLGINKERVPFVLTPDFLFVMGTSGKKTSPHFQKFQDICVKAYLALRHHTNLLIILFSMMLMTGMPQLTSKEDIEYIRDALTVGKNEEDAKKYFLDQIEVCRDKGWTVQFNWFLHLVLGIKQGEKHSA
Chain of PIK3CA (human) (P42336 whole entry, looked up): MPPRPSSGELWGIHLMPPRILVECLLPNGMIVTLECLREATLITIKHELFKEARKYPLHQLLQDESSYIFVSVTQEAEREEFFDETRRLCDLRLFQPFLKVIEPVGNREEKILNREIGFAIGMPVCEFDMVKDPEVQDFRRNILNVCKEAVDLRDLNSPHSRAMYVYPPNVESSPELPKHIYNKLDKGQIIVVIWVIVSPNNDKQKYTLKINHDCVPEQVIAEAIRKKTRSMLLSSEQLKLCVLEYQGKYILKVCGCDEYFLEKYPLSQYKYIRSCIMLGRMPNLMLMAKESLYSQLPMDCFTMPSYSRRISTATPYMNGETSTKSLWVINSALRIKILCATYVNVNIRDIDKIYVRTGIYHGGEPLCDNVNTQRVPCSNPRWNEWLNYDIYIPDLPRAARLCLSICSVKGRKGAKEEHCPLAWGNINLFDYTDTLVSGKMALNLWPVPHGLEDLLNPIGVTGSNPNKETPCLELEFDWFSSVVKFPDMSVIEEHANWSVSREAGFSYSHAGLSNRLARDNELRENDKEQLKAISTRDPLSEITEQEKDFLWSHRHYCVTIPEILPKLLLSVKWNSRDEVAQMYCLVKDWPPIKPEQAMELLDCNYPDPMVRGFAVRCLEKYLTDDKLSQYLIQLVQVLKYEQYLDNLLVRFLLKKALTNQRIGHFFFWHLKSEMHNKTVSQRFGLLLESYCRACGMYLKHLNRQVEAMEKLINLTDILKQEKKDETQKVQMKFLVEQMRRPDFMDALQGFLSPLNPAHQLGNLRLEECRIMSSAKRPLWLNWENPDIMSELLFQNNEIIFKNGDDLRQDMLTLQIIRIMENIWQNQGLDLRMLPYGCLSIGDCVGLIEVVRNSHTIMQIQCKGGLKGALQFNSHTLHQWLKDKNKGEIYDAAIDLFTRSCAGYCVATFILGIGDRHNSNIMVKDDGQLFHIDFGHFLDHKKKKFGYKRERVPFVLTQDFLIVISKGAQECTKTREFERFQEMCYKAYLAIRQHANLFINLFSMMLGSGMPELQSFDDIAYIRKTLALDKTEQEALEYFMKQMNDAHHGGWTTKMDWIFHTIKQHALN

For `CS(=O)(=O)c1cccc(-c2ccc3nc(NC(=O)NCCc4noc(-c5ccccc5)n4)sc3c2)c1`, at PIK3CG (human), the half-maximal inhibitory concentration (IC50) (usually the midpoint of a concentration-inhibition curve) was > 20000 nM.

In the case of `COCCNS(=O)(=O)c1cccc(-c2ccc3nc(NC(C)=O)sc3c2)c1`, the 50% inhibitory concentration (IC50) against PIK3CG (human), at PIK3CA (human) and against PIK3CD (Human) was < 1000 nM in each case.

Regarding `CC(=O)Nc1nc2ccc(-c3cccc(S(=O)(=O)N4CCCC(O)C4)c3)cc2s1` (centres undefined), the IC50 against PIK3CG (human), at PIK3CA (human) and on PIK3CD (Human) was < 1000 nM throughout.

For the compound `CC(=O)Nc1nc2ccc(-c3cccc(S(N)(=O)=O)c3)cc2s1`, the IC50 on PIK3CG (human), at PIK3CA (human) and on PIK3CD (Human) was < 1000 nM each time.

With `CC(=O)Nc1nc2ccc(-c3cccc(S(=O)(=O)N(CCO)CCO)c3)cc2s1`, the half-maximal inhibitory concentration (IC50) at PIK3CG (human), against PIK3CA (human) and on PIK3CD (Human) was < 1000 nM in each case.

On to `CCNS(=O)(=O)c1cccc(-c2ccc3nc(NC(C)=O)sc3c2)c1`, for which the IC50 against PIK3CG (human), against PIK3CA (human) and at PIK3CD (Human) was < 1000 nM throughout.

On to `CC(=O)Nc1nc2ccc(-c3cccc(S(C)(=O)=O)c3)cc2s1`, for which the half-maximal inhibitory concentration (IC50) against PIK3CG (human), against PIK3CA (human) and against PIK3CD (Human) was < 1000 nM each time.

With `CC(=O)Nc1nc2ccc(-c3cccc(S(=O)(=O)CCCO)c3)cc2s1`, the 50% inhibitory concentration (IC50) at PIK3CA (human) and on PIK3CD (Human) was < 1000 nM in each case.

For `CC(=O)Nc1nc2ccc(-c3cccc(C(N)=O)c3)cc2s1`, the half-maximal inhibitory concentration (IC50) at PIK3CG (human) is < 1000 nM.

With `CS(=O)(=O)c1cccc(-c2ccc3nc(NC(=O)C(=O)N4CCCC4)sc3c2)c1`, at PIK3CD (Human), the half-inhibitory concentration (IC50) is < 1000 nM.

Regarding `CC(=O)Nc1nc2ccc(-c3cc(C(F)(F)F)cc(S(=O)(=O)NCCO)c3)cc2s1`, on PIK3CA (human), the IC50 was > 20000 nM.

For `CC(=O)Nc1nc2ccc(-c3cccc(S(=O)(=O)N4CCOCC4)c3)cc2s1`, the IC50 against PIK3CG (human) and against PIK3CA (human) was < 1000 nM each time.

Consider `CC(=O)Nc1nc2ccc(-c3ccc(O)c(F)c3)cc2s1`, for which the IC50 against PIK3CG (human) is < 1000 nM.

Take `COc1cccc(-c2ccc3nc(NC(C)=O)sc3c2)c1`: the half-maximal inhibitory concentration (IC50) on PIK3CD (Human) was > 20000 nM.

On to `COc1cc(-c2ccc3nc(NC(=O)NCCC(=O)OC(C)(C)C)sc3c2)ccc1O`, for which, on PIK3CG (human), the IC50 is < 1000 nM.

On to `CC(C)c1noc(CCNC(=O)Nc2nc3ccc(-c4cccc(S(=O)(=O)N(C)C)c4)cc3s2)n1`, for which, at PIK3CA (human), the concentration for half-maximal inhibition (IC50) is > 20000 nM.

With `CC(=O)Nc1nc2ccc(-c3cccc(S(=O)(=O)NC4CCCN(C(=O)OC(C)(C)C)C4)c3)cc2s1` (centres undefined), the IC50 against PIK3CA (human) is < 1000 nM.

As for `CC(C)(C)OCCCNC(=O)Nc1nc2ccc(-c3cccc(S(C)(=O)=O)c3)cc2s1`, the half-inhibitory concentration (IC50) at PIK3CA (human) and on PIK3CD (Human) was > 20000 nM in each case.

As for `CC(=O)Nc1nc2ccc(-c3cccc(S(=O)(=O)N4CCCC(NC(=O)OC(C)(C)C)C4)c3)cc2s1` (centres undefined), the IC50 against PIK3CA (human) was < 1000 nM.

Turning to `CS(=O)(=O)c1cccc(-c2ccc3nc(NC(=O)c4ccco4)sc3c2)c1`, the concentration for half-maximal inhibition (IC50) at PIK3CA (human) and at PIK3CD (Human) was > 20000 nM in each case.

On to `CC(=O)Nc1nc2ccc(-c3cccc(NS(=O)(=O)N(C)C)c3)cc2s1`, for which the IC50 against PIK3CG (human) was < 1000 nM.

`CC(=O)Nc1nc2ccc(-c3ccncc3)cc2s1`: on PIK3CG (human), the half-maximal inhibitory concentration (IC50) was < 1000 nM.

For the compound `CCC(=O)Nc1nc2ccc(-c3cccc(S(C)(=O)=O)c3)cc2s1`, at PIK3CD (Human), the half-maximal inhibitory concentration (IC50) is < 1000 nM.

As to `CC(=O)Nc1nc2ccc(-c3cccc(S(=O)(=O)N4CCN(C)C(=O)C4)c3)cc2s1`, the IC50 at PIK3CA (human) was < 1000 nM.

For the compound `CC(=O)Nc1nc2ccc(-c3ccc(C)c(S(C)(=O)=O)c3)cc2s1`, the half-inhibitory concentration (IC50) on PIK3CD (Human) was < 1000 nM.

Consider `CC(C)n1nnc(CCNC(=O)Nc2nc3ccc(-c4cccc(S(C)(=O)=O)c4)cc3s2)n1`, for which the IC50 on PIK3CG (human) is < 1000 nM.

Consider `CC(=O)Nc1nc2ccc(-c3cccc(S(=O)(=O)N(C)C)c3)cc2s1`, for which the half-maximal inhibitory concentration (IC50) against PIK3CG (human) and at PIK3CA (human) was < 1000 nM throughout.

Consider `CC(=O)Nc1nc2ccc(-c3cccc(S(=O)(=O)CCO)c3)cc2s1`, for which the IC50 against PIK3CG (human) and against PIK3CD (Human) was < 1000 nM in each case.

For the compound `COC(=O)c1cccc(-c2ccc3nc(NC(C)=O)sc3c2)c1`, the concentration for half-maximal inhibition (IC50) at PIK3CG (human) was > 20000 nM.

As for `CC(=O)Nc1cn2cc(-c3cccc(S(C)(=O)=O)c3)ccc2n1`, the IC50 at PIK3CA (human) and at PIK3CD (Human) was < 1000 nM throughout.

(Values after the Kinase Knowledgebase extract (Sharma et al. 2016).)
